Measured values taken from ChEMBL document CHEMBL3885881, “DrugMatrix”.

Species: Rattus norvegicus
Experiment: DrugMatrix - Regimen: Daily Repeat
Type: toxicity, organism-based, Sprague-Dawley
Set-up: regimen Daily Repeat, gender Male, age 6-8 weeks
Settings: in vivo, sc, 120 h, route subcutaneous, time 5 day, vehicle 100 % SALINE; for ABSOLUTE BASOPHIL / ABSOLUTE EOSINOPHIL / ABSOLUTE LYMPHOCYTE / ABSOLUTE MONOCYTE / ABSOLUTE SEGMENTED NEUTROPHIL / BASOPHIL / EOSINOPHIL / ERYTHROCYTE COUNT / HEMATOCRIT / HEMOGLOBIN / LEUKOCYTE COUNT / LYMPHOCYTE / MEAN CORPUSCULAR HEMOGLOBIN / MEAN CORPUSCULAR HEMOGLOBIN CONCENTRATION / MEAN CORPUSCULAR VOLUME / MONOCYTE / NEUTROPHIL / NUCLEATED RED BLOOD CELLS / PLATELET COUNT: tissue Blood; for ALANINE AMINOTRANSFERASE / ALBUMIN / ALKALINE PHOSPHATASE / ASPARTATE AMINOTRANSFERASE / BLOOD UREA NITROGEN / CARBON DIOXIDE / CHLORIDE / CHOLESTEROL / CREATINE PHOSPHOKINASE / CREATININE / GLUCOSE / LACTATE DEHYDROGENASE / LIPASE / PHOSPHORUS / POTASSIUM / SODIUM / TOTAL BILIRUBIN / TOTAL PROTEIN / URIC ACID: tissue Plasma

CC(N)Cc1c[nH]c2ccc(OCc3cccs3)cc12 (centres undefined) [BW-723C86]
ABSOLUTE BASOPHIL (0 mg/kg, dose level Control): 0 CELLS/uL
ABSOLUTE EOSINOPHIL (0 mg/kg, dose level Control): 0 CELLS/uL
ABSOLUTE LYMPHOCYTE (0 mg/kg, dose level Control): 5956.67 CELLS/uL
ABSOLUTE MONOCYTE (0 mg/kg, dose level Control): 0 CELLS/uL
ABSOLUTE SEGMENTED NEUTROPHIL (0 mg/kg, dose level Control): 510 CELLS/uL
BASOPHIL (0 mg/kg, dose level Control): 0%
EOSINOPHIL (0 mg/kg, dose level Control): 0%
ERYTHROCYTE COUNT (0 mg/kg, dose level Control): 5.39 x10E6/uL
HEMATOCRIT (0 mg/kg, dose level Control): 32.5%
HEMOGLOBIN (0 mg/kg, dose level Control): 12.47 G/DL
LEUKOCYTE COUNT (0 mg/kg, dose level Control): 6.47 x10E3/uL
LYMPHOCYTE (0 mg/kg, dose level Control): 92%
MEAN CORPUSCULAR HEMOGLOBIN (0 mg/kg, dose level Control): 23.13 pg
MEAN CORPUSCULAR HEMOGLOBIN CONCENTRATION (0 mg/kg, dose level Control): 38.37 G/DL
MEAN CORPUSCULAR VOLUME (0 mg/kg, dose level Control): 60.3 fL
MONOCYTE (0 mg/kg, dose level Control): 0%
NEUTROPHIL (0 mg/kg, dose level Control): 8%
NUCLEATED RED BLOOD CELLS (0 mg/kg, dose level Control): 0.33 /100WBC
PLATELET COUNT (0 mg/kg, dose level Control): 888 x10E3/uL
ALANINE AMINOTRANSFERASE (0 mg/kg, dose level Control): 43.67 u/L
ALBUMIN (0 mg/kg, dose level Control): 4.37 G/DL
ALKALINE PHOSPHATASE (0 mg/kg, dose level Control): 356 u/L
ASPARTATE AMINOTRANSFERASE (0 mg/kg, dose level Control): 74 u/L
BLOOD UREA NITROGEN (0 mg/kg, dose level Control): 11 mg/dL
CARBON DIOXIDE (0 mg/kg, dose level Control): 32.33 mmol/L
CHLORIDE (0 mg/kg, dose level Control): 103.33 MEQ/L
CHOLESTEROL (0 mg/kg, dose level Control): 70.67 mg/dL
CREATINE PHOSPHOKINASE (0 mg/kg, dose level Control): 195.33 u/L
CREATININE (0 mg/kg, dose level Control): 0.16 mg/dL
GLUCOSE (0 mg/kg, dose level Control): 161.67 mg/dL
LACTATE DEHYDROGENASE (0 mg/kg, dose level Control): 84 u/L
LIPASE (0 mg/kg, dose level Control): 9 u/L
PHOSPHORUS (0 mg/kg, dose level Control): 12.57 mg/dL
POTASSIUM (0 mg/kg, dose level Control): 6.87 MEQ/L
SODIUM (0 mg/kg, dose level Control): 147.6 MEQ/L
TOTAL BILIRUBIN (0 mg/kg, dose level Control): 0.13 mg/dL
TOTAL PROTEIN (0 mg/kg, dose level Control): 6.27 G/DL
URIC ACID (0 mg/kg, dose level Control): 1.67 mg/dL
ABSOLUTE BASOPHIL (10 mg/kg, dose level Low): 0 CELLS/uL
ABSOLUTE EOSINOPHIL (10 mg/kg, dose level Low): 0 CELLS/uL
ABSOLUTE LYMPHOCYTE (10 mg/kg, dose level Low): 5627 CELLS/uL
ABSOLUTE MONOCYTE (10 mg/kg, dose level Low): 73.33 CELLS/uL
ABSOLUTE SEGMENTED NEUTROPHIL (10 mg/kg, dose level Low): 866.33 CELLS/uL
BASOPHIL (10 mg/kg, dose level Low): 0%
EOSINOPHIL (10 mg/kg, dose level Low): 0%
ERYTHROCYTE COUNT (10 mg/kg, dose level Low): 5.18 x10E6/uL
HEMATOCRIT (10 mg/kg, dose level Low): 31.03%
HEMOGLOBIN (10 mg/kg, dose level Low): 12 G/DL
LEUKOCYTE COUNT (10 mg/kg, dose level Low): 6.57 x10E3/uL
LYMPHOCYTE (10 mg/kg, dose level Low): 85.33%
MEAN CORPUSCULAR HEMOGLOBIN (10 mg/kg, dose level Low): 23.2 pg
MEAN CORPUSCULAR HEMOGLOBIN CONCENTRATION (10 mg/kg, dose level Low): 38.67 G/DL
MEAN CORPUSCULAR VOLUME (10 mg/kg, dose level Low): 60 fL
MONOCYTE (10 mg/kg, dose level Low): 1%
NEUTROPHIL (10 mg/kg, dose level Low): 13.67%
NUCLEATED RED BLOOD CELLS (10 mg/kg, dose level Low): 0.33 /100WBC
PLATELET COUNT (10 mg/kg, dose level Low): 1156.33 x10E3/uL
ALANINE AMINOTRANSFERASE (10 mg/kg, dose level Low): 53.33 u/L
ALBUMIN (10 mg/kg, dose level Low): 4.03 G/DL
ALKALINE PHOSPHATASE (10 mg/kg, dose level Low): 406.67 u/L
ASPARTATE AMINOTRANSFERASE (10 mg/kg, dose level Low): 85.67 u/L
BLOOD UREA NITROGEN (10 mg/kg, dose level Low): 14.67 mg/dL
CARBON DIOXIDE (10 mg/kg, dose level Low): 33.33 mmol/L
CHLORIDE (10 mg/kg, dose level Low): 103.33 MEQ/L
CHOLESTEROL (10 mg/kg, dose level Low): 90.33 mg/dL
CREATINE PHOSPHOKINASE (10 mg/kg, dose level Low): 200.33 u/L
CREATININE (10 mg/kg, dose level Low): 0.18 mg/dL
GLUCOSE (10 mg/kg, dose level Low): 150.33 mg/dL
LACTATE DEHYDROGENASE (10 mg/kg, dose level Low): 93 u/L
LIPASE (10 mg/kg, dose level Low): 8 u/L
PHOSPHORUS (10 mg/kg, dose level Low): 13.1 mg/dL
POTASSIUM (10 mg/kg, dose level Low): 7.02 MEQ/L
SODIUM (10 mg/kg, dose level Low): 148.43 MEQ/L
TOTAL BILIRUBIN (10 mg/kg, dose level Low): 0.1 mg/dL
TOTAL PROTEIN (10 mg/kg, dose level Low): 6.43 G/DL
URIC ACID (10 mg/kg, dose level Low): 1.67 mg/dL
ABSOLUTE BASOPHIL (50 mg/kg, dose level High): 0 CELLS/uL
ABSOLUTE EOSINOPHIL (50 mg/kg, dose level High): 0 CELLS/uL
ABSOLUTE LYMPHOCYTE (50 mg/kg, dose level High): 7706.33 CELLS/uL
ABSOLUTE MONOCYTE (50 mg/kg, dose level High): 71.33 CELLS/uL
ABSOLUTE SEGMENTED NEUTROPHIL (50 mg/kg, dose level High): 3055.67 CELLS/uL
BASOPHIL (50 mg/kg, dose level High): 0%
EOSINOPHIL (50 mg/kg, dose level High): 0%
ERYTHROCYTE COUNT (50 mg/kg, dose level High): 5.21 x10E6/uL
HEMATOCRIT (50 mg/kg, dose level High): 30.4%
HEMOGLOBIN (50 mg/kg, dose level High): 11.63 G/DL
LEUKOCYTE COUNT (50 mg/kg, dose level High): 10.83 x10E3/uL
LYMPHOCYTE (50 mg/kg, dose level High): 71%
MEAN CORPUSCULAR HEMOGLOBIN (50 mg/kg, dose level High): 22.4 pg
MEAN CORPUSCULAR HEMOGLOBIN CONCENTRATION (50 mg/kg, dose level High): 38.3 G/DL
MEAN CORPUSCULAR VOLUME (50 mg/kg, dose level High): 58.4 fL
MONOCYTE (50 mg/kg, dose level High): 0.67%
NEUTROPHIL (50 mg/kg, dose level High): 28.33%
NUCLEATED RED BLOOD CELLS (50 mg/kg, dose level High): 0.33 /100WBC
PLATELET COUNT (50 mg/kg, dose level High): 1382.67 x10E3/uL
ALANINE AMINOTRANSFERASE (50 mg/kg, dose level High): 47.33 u/L
ALBUMIN (50 mg/kg, dose level High): 3.33 G/DL
ALKALINE PHOSPHATASE (50 mg/kg, dose level High): 343 u/L
ASPARTATE AMINOTRANSFERASE (50 mg/kg, dose level High): 83.67 u/L
BLOOD UREA NITROGEN (50 mg/kg, dose level High): 15 mg/dL
CARBON DIOXIDE (50 mg/kg, dose level High): 28 mmol/L
CHLORIDE (50 mg/kg, dose level High): 104.33 MEQ/L
CHOLESTEROL (50 mg/kg, dose level High): 78.33 mg/dL
CREATINE PHOSPHOKINASE (50 mg/kg, dose level High): 168.33 u/L
CREATININE (50 mg/kg, dose level High): 0.18 mg/dL
GLUCOSE (50 mg/kg, dose level High): 174 mg/dL
LACTATE DEHYDROGENASE (50 mg/kg, dose level High): 96.33 u/L
LIPASE (50 mg/kg, dose level High): 8.33 u/L
PHOSPHORUS (50 mg/kg, dose level High): 13.63 mg/dL
POTASSIUM (50 mg/kg, dose level High): 6.41 MEQ/L
SODIUM (50 mg/kg, dose level High): 147.13 MEQ/L
TOTAL BILIRUBIN (50 mg/kg, dose level High): 0.1 mg/dL
TOTAL PROTEIN (50 mg/kg, dose level High): 5.87 G/DL
URIC ACID (50 mg/kg, dose level High): 2.1 mg/dL
